Test results: article PMC3517155 (ChemMedChem, 2009)

Tests used:
DAT [1] = molecular target: T1, DAT (Rattus norvegicus, UniProt P23977); test: DAT binding, inhibition of [3H]WIN 35,428 binding in rat striatum
DAT [2] = molecular target: T1, DAT; test: DAT uptake, inhibition of [3H]DA uptake in rat striatum; format: biochemical; settings: for Selectivity ratio DAT uptake/DAT binding: ratio of Ki values
SERT = SERT (Rattus norvegicus, UniProt P31652); test: SERT uptake, inhibition of [3H]5-HT uptake in rat cerebral cortex; format: biochemical; settings: for Selectivity ratio SERT uptake/DAT uptake: ratio of Ki values
Sequence of SERT (P31652 whole entry): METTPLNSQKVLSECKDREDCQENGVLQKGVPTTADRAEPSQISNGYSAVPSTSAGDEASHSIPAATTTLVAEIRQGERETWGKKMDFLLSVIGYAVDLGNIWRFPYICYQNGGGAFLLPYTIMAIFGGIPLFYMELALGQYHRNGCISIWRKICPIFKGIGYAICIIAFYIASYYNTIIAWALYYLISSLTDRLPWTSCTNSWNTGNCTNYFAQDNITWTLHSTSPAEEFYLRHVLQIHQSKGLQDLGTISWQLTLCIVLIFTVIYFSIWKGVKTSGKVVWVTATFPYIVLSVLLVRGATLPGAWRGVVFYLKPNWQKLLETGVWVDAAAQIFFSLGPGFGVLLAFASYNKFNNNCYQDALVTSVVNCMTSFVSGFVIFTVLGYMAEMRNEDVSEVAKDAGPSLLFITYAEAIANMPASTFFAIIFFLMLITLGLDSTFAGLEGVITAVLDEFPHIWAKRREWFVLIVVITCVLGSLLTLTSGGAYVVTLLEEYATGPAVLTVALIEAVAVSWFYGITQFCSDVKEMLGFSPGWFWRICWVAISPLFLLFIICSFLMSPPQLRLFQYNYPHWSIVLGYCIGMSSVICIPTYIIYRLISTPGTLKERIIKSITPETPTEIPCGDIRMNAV

NET = NET uptake, inhibition of [3H]NE uptake in rat hippocampus; format: biochemical; settings: ratio of Ki values
Swiss-Webster mice = test: Locomotor activity in mice; settings: i.p., 1 mg/kg
[3] = tested on: rats trained to discriminate 10 mg/kg cocaine from saline; test: Cocaine drug discrimination in rats; settings: at 10 and 30 mg/kg i.p.

T1 sequence (P23977 whole entry): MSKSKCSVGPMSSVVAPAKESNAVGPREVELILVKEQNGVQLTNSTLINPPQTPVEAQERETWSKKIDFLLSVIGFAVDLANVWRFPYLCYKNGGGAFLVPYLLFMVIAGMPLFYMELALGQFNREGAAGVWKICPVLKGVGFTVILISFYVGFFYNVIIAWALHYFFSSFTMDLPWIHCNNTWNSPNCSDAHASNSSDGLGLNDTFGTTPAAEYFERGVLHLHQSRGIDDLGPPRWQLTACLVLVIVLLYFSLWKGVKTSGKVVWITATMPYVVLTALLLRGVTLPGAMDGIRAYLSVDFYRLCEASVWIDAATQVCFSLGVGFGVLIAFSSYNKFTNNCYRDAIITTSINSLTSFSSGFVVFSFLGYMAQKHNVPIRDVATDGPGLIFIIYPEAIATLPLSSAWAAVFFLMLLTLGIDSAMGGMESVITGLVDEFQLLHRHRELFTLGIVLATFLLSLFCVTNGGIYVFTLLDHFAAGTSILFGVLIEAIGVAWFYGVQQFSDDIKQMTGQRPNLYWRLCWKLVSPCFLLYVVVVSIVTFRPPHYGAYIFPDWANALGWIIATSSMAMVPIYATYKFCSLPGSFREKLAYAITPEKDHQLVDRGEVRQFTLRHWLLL

SMILES | Ki (DAT [1]) [nM] | Ki (DAT [2]) [nM] | Selectivity ratio DAT uptake/DAT binding (DAT [2]) | Selectivity ratio SERT uptake/DAT uptake (SERT) | Selectivity ratio NET uptake/DAT uptake (NET) | Ki (SERT) [nM] | time of peak effect on distance traveled (Swiss-Webster mice) [min] | percentage of cocaine-lever responding [3] [%]
O[C@@H]1CN(C[C@H](O)c2ccccc2)CC[C@H]1CCOC(c1ccccc1)c1ccccc1 [9a′, (3S,4S)-4-(2-(Benzhydryloxy)ethyl)-1-((R)-2-hydroxy-2-phenylethyl)piperidin-3-ol] | 40.1 ± 19.2 | 18.4 ± 9.5 | 0.46 | 23 | 1.5 | – | – | –
O[C@H](CN1CC[C@@H](CCOC(c2ccccc2)c2ccccc2)[C@H](O)C1)c1ccccc1 [9b′, (3S,4S)-4-(2-(Benzhydryloxy)ethyl)-1-((S)-2-hydroxy-2-phenylethyl)piperidin-3-ol] | 0.486 ± 0.065 | 1.06 ± 0.42 | 2.2 | 220 | 110 | 231 ± 49 | – | –
O[C@@H]1CN(C[C@H](O)c2ccc(F)cc2)CC[C@H]1CCOC(c1ccccc1)c1ccccc1 [9c′, (3S,4S)-4-(2-(benzhydryloxy)ethyl)-1-((R)-2-(4-fluorophenyl)-2-hydroxyethyl)piperidin-3-ol] | – | 2.44 ± 0.37 | – | 160 | 10 | 402 ± 67 | – | –
O[C@H](CN1CC[C@@H](CCOC(c2ccccc2)c2ccccc2)[C@H](O)C1)c1ccc(F)cc1 [9d′, (3S,4S)-4-(2-(Benzhydryloxy)ethyl)-1-((S)-2-(4-fluorophenyl)-2-hydroxyethyl)piperidin-3-ol] | 2.59 ± 0.66 | 2.97 ± 0.72 | 1.2 | 600 | 7.0 | 1790 | – | –
O[C@@H](CN1CC[C@H](CCOC(c2ccccc2)c2ccccc2)[C@@H](O)C1)c1ccccc1 [Compound 9a, (3R,4R)-4-(2-(Benzhydryloxy)ethyl)-1-((R)-2-hydroxy-2-phenylethyl)-piperidin-3-ol] | 6.76 ± 1.75 | 6.23 ± 2.38 | 0.92 | 73 | 1.2 | 456 ± 102 | 20 to 30 | –
O[C@H](CN1CC[C@H](CCOC(c2ccccc2)c2ccccc2)[C@@H](O)C1)c1ccccc1 [Compound 9b, (3R,4R)-4-(2-(Benzhydryloxy)ethyl)-1-((S)-2-hydroxy-2-phenylethyl)piperidin-3-ol] | 2.29 ± 0.85 | 4.69 ± 2.06 | 2.0 | 33 | 17 | 155 ± 26 | – | –
O[C@@H](CN1CC[C@H](CCOC(c2ccccc2)c2ccccc2)[C@@H](O)C1)c1ccc(F)cc1 [Compound 9c, (3R,4R)-4-(2-(Benzhydryloxy)ethyl)-1-((R)-2-(4-fluorophenyl)-2-hydroxyethyl)piperidin-3-ol] | 2.17 ± 0.67 | 4.04 ± 1.22 | 2.0 | 260 | 5.4 | 1050 | – | –
O[C@H](CN1CC[C@H](CCOC(c2ccccc2)c2ccccc2)[C@@H](O)C1)c1ccc(F)cc1 [Compound 9d, (3R,4R)-4-(2-(Benzhydryloxy)ethyl)-1-((S)-2-(4-fluorophenyl)-2-hydroxyethyl)piperidin-3-ol] | 2.65 ± 0.99 | 1.55 ± 0.27 | 0.59 | 170 | 9.1 | 259 ± 36 | – | –
COC(=O)[C@H]1[C@@H](OC(=O)c2ccccc2)C[C@@H]2CC[C@H]1N2C [cocaine] | – | – | – | – | – | – | – | ≥ 80
